According to ChEMBL document CHEMBL1137286, “Vialinin B, a novel potent inhibitor of TNF-alpha production, isolated from an edible mushroom, Thelephora vialis” (Bioorg Med Chem Lett, 2006):

Tested on: RBL-2H3
Experiment: Inhibition of DNP7-BSA antigen-induced TNFalpha release in rat RBL-2H3 cells
Assay type: functional, cell-based

## O=C(Cc1ccccc1)Oc1c(-c2ccc(O)cc2)c(OC(=O)Cc2ccccc2)c2oc3cc(O)c(O)cc3c2c1OC(=O)Cc1ccccc1 [GANBAJUNIN B]
  IC50: 5000 nM

## O=C(Cc1ccccc1)Oc1c(-c2ccc(O)cc2)c(O)c2oc3cc(O)c(O)cc3c2c1OC(=O)Cc1ccccc1 [VIALININ B]
  IC50: 0.02 nM

## Oc1ccc(-c2c(O)c(O)c3c(oc4cc(O)c(O)cc43)c2O)cc1 [CYCLOLEUCOMELONE]
  IC50: 3500 nM

## C=CC[C@@H]1/C=C(\C)C[C@H](C)C[C@H](OC)[C@H]2O[C@@](O)(C(=O)C(=O)N3CCCC[C@H]3C(=O)O[C@H](/C(C)=C/[C@@H]3CC[C@@H](O)[C@H](OC)C3)[C@H](C)[C@@H](O)CC1=O)[C@H](C)C[C@@H]2OC [TACROLIMUS ANHYDROUS]
  IC50: 0.25 nM
